Where only a bound is given, the exact number is not on record here.

In the first assay the test system is purified human Hsp90. The experiment in a line: Binding Assay: fluorescence polarization with BODIPY-labeled geldanamycin. As to conditions: 5 μM compound, BODIPY-GM 10 nM, Hsp90 30 nM. In a few lines:
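Compounds in 2% DMSO final compete with 10 nM BODIPY-GM for 30 nM purified human Hsp90, incubated overnight at room temperature in pH 7.3 HEPES buffer containing Na2MoO4 and DTT. Polarization (mP, ex/em 485/530) normalized to DMSO gives percent inhibition; autofluorescence-confounded data excluded.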
A general note: Fluorescence polarisation rises when a labelled molecule tumbles more slowly, as on binding a larger partner.
Turning to `CC(C)N1CCN(CCn2cnc(N)c3nc(Sc4cc5c(cc4Br)OCO5)nc2-3)CC1` [Example 488, 8-[(6-Bromo-1,3-benzodioxol-5-yl)thio]-3-[2-(4-isopropylpiperazin-1-yl)ethyl]-3H-purin-6-amine], the % Inhibition (usually the drop in the measured response relative to a control, in per cent) at 5 μM Compound Concentration is on record as 29%.

Regarding `COc1ccc(OC)c(Sc2nc3c(N)ncn(CCN4CCN(C5CCCC5)CC4)c-3n2)c1` [Example 495, 3-[2-(4-Cyclopentylpiperazin-1-yl)ethyl]-8-[(2,5-dimethoxyphenyl)thio]-3 H-purin-6-amine], the “% Inhibition at 5 μM Compound Concentration” value (“% Inhibition” below) is on record as 6%.

As for `C=Cn1cnc(N)c2nc(Sc3cc4c(cc3Br)OCO4)nc1-2` [Example 499, 8-(6-bromo-benzo[1,3]dioxol-5-ylsulfanyl)-3-vinyl-3H-6-ylamine], the “% Inhibition” value worked out at 21%.

Regarding `Nc1ncn(CCC2CCN(C(=O)C3CC3(F)F)CC2)c2nc(Sc3cc4c(cc3Br)OCO4)nc1-2` (stereo not drawn) [Example 525, 8-[(6-Bromo-1,3-benzodioxol-5-yl)thio]-3-(2-{1-[(2,2-difluorocyclopropyl)carbonyl]piperidin-4-yl}ethyl)-3 H-purin-6-amine], the “% Inhibition” value is reported as 13.00%.

On to `Nc1ncn(CCC2CCN(C(=O)C3(C(F)(F)F)CC3)CC2)c2nc(Sc3cc4c(cc3Br)OCO4)nc1-2` [Example 527], for which the “% Inhibition” value is reported as 19.00%.

Still in this assay, the particulars now being: BODIPY-GM 10 nM, Hsp90 30 nM.
Take `Nc1ncnc2c1nc(Sc1cc3c(cc1Br)OCO3)n2CC[C@@H]1CCNC1` [Example 484, 8-[(6-Bromo-1,3-benzodioxol-5-yl)thio]-9-{2-[(3S)-pyrrolidin-3-yl]ethyl}-9 H-purin-6-amine]: the IC50 (commonly the concentration that inhibits the measured activity by half) came out at 600 nM.

`COc1ccc(OC)c(Sc2nc3c(N)ncnc3n2CCN2C(=O)CCCC2=O)c1` [Example 485, 1-(2-{6-Amino-8-[(2,5-dimethoxyphenyl)thio]-9H-purin-9-yl}ethyl)piperidine-2,6-dione] displayed a concentration for half-maximal inhibition (IC50) of 1000 nM.

Turning to `C=Cn1c(S(=O)(=O)c2cc(OC)ccc2OC)nc2c(N)ncnc21` [Example 486, 8-(2,5-dimethoxy-phenylsulfonyl)-9-vinyl-9H -purin-6-ylamine], the 50% inhibitory concentration (IC50) turned out to be 7000 nM.

For `CC(C)N1CCN(CCn2c(Sc3cc4c(cc3Br)OCO4)nc3c(N)ncnc32)CC1` [Example 487, 8-[(6-Bromo-1,3-benzodioxol-5-yl)thio]-9-[2-(4-isopropylpiperazin-1-yl)ethyl]-9H-purin-6-amine], the IC50 stood at 900 nM.

Consider `COc1ccc(OC)c(Sc2nc3c(N)ncn(CCN4CCCCC4)c-3n2)c1` [Example 490, 8-[(2,5-Dimethoxyphenyl)thio]-3-(2-piperidin-1-ylethyl)-3 H-purin-6-amine], for which the IC50 worked out at 25000 nM.

`Nc1ncn(CCN2CCCCC2)c2nc(Sc3cc4c(cc3Br)OCO4)nc1-2` [Example 492, 8-[(6-Bromo-1,3-benzodioxol-5-yl)thio]-3-(2-piperidin-1-ylethyl)-3 H-purin-6-amine]: the 50% inhibitory concentration (IC50) is 900 nM.

In turn, `COc1ccc(OC)c(Sc2nc3c(N)ncnc3n2CCN2CCN(C(C)C)CC2)c1` [Example 493, 8-[(2,5-Dimethoxyphenyl)thio]-9-[2-(4-isopropylpiperazin-1-yl)ethyl]-9 H-purin-6-amine] gave an IC50 of 8900 nM. Against the preceding molecule, the IC50 is about 9.9-fold higher.

`COc1ccc(OC)c(Sc2nc3c(N)ncnc3n2CCN2CCN(C3CCCC3)CC2)c1` [Example 494, 9-[2-(4-Cyclopentylpiperazin-1-yl)ethyl]-8-[(2,5-dimethoxyphenyl)thio]-9 H-purin-6-amine] gave an IC50 of 5500 nM.

`Nc1ncnc2c1nc(Sc1cc3c(cc1Br)OCO3)n2CCN1C(=O)CCCC1=O` [Example 496, 1-(2-{6-Amino-8-[(6-bromo-1,3-benzodioxol-5-yl)thio]-9H-purin-9-yl}ethyl)piperidine-2,6-dione] had a concentration for half-maximal inhibition (IC50) of 81 nM.

Regarding `Nc1ncn(CCN2C(=O)CCCC2=O)c2nc(Sc3cc4c(cc3Br)OCO4)nc1-2` [Example 497, 1-(2-{6-amino-8-[(6-bromo-1,3-benzodioxol-5-yl)thio]-3H-purin-3-yl}ethyl)piperidine-2,6-dione], the half-maximal inhibitory concentration (IC50) was 25000 nM.

With `C=Cn1c(Sc2cc3c(cc2Br)OCO3)nc2c(N)ncnc21` [Example 498, 8-(6-bromo-benzo[1,3]dioxol-5-ylsulfanyl)-9-vinyl-9H-6-ylamine], the IC50 was 525 nM.

Molecule `COC(=O)CCCNC(=O)N1CCC(CCn2c(Sc3cc4c(cc3Br)OCO4)nc3c(N)ncnc32)CC1` [Example 500, Methyl 4-({[4-(2-{6-amino-8-[(6-bromo-1,3-benzodioxol-5-yl)thio]-9H-purin-9-yl}ethyl)piperidin-1-yl]carbonyl}amino)butanoate] displayed an IC50 of 60 nM.

The molecule `Nc1ncnc2c1nc(Sc1cc3c(cc1Br)OCO3)n2CCC1CCN(C(=O)NCCCC(=O)O)CC1` [Example 502, 4-({[4-(2-{6-Amino-8-[(6-bromo-1,3-benzodioxol-5-yl)thio]-9 H-purin-9-yl}ethyl)piperidin-1-yl]carbonyl}amino)butanoic acid] displayed a half-maximal inhibitory concentration (IC50) of 140 nM.

In the case of `COC(=O)CCCNC(=O)N1CCCC(CCn2c(Sc3cc4c(cc3Br)OCO4)nc3c(N)ncnc32)C1` (stereo not drawn) [Example 503, Methyl 4-({[3-(2-{6-amino-8-[(6-bromo-1,3-benzodioxol-5-yl)thio]-9 H-purin-9-yl}ethyl)piperidin-1-yl]carbonyl}amino)butanoate], the IC50 stood at 190 nM.

For `COC(=O)[C@H](CCSC)NC(=O)N1CCC(CCn2c(Sc3cc4c(cc3Br)OCO4)nc3c(N)ncnc32)CC1` [Example 505, Methyl N-{[4-(2-{6-amino-8-[(6-bromo-1,3-benzodioxol-5-yl)thio]-9 H-purin-9-yl}ethyl)piperidin-1-yl]carbonyl}-L-methioninate], the half-maximal inhibitory concentration (IC50) came out at 85 nM.

The molecule `COC(=O)[C@H](CCSC)NC(=O)N1CCCC(CCn2c(Sc3cc4c(cc3Br)OCO4)nc3c(N)ncnc32)C1` (stereo partly drawn) [Example 507, Methyl N-{[3-(2-{6-amino-8-[(6-bromo-1,3-benzodioxol-5-yl)thio]-9 H-purin-9-yl}ethyl)piperidin-1-yl]carbonyl}-L-methioninate] displayed an IC50 of 405 nM. This IC50 lies about 4.8-fold higher than the previous one.

`Nc1ncnc2c1nc(Sc1cc3c(cc1Br)OCO3)n2CCC1CCN(C(=O)C2CCCC2)CC1` [Example 510, 8-[(6-Bromo-1,3-benzodioxol-5-yl)thio]-9-{2-[1-(cyclopentylcarbonyl)piperidin-4-yl]ethyl}-9 H-purin-6-amine]: the IC50 is 250 nM.

`Nc1ncnc2c1nc(Sc1cc3c(cc1Br)OCO3)n2CCC1CCN(C(=O)C2CCC2)CC1` [Example 512, 8-[(6-Bromo-1,3-benzodioxol-5-yl)thio]-9-{2-[1-(cyclobutylcarbonyl)piperidin-4-yl]ethyl}-9 H-purin-6-amine] showed an IC50 of 110 nM.

In turn, `Nc1ncnc2c1nc(Sc1cc3c(cc1Br)OCO3)n2CCC1CCN(C(=O)C2CC2)CC1` [Example 514, 8-[(6-Bromo-1,3-benzodioxol-5-yl)thio]-9-{2-[1-(cyclopropylcarbonyl)piperidin-4-yl]ethyl}-9 H-purin-6-amine] came in with an IC50 of 110 nM.

`CC1(C(=O)N2CCC(CCn3c(Sc4cc5c(cc4Br)OCO5)nc4c(N)ncnc43)CC2)CC1` [Example 516, 8-[(6-Bromo-1,3-benzodioxol-5-yl)thio]-9-(2-{1-[(1-methylcyclopropyl)carbonyl]piperidin-4-yl}ethyl)-9 H-purin-6-amine] returned an IC50 of 600 nM. Compared with the last molecule, the IC50 is about 5.5-fold higher.

Molecule `CC1CC1C(=O)N1CCC(CCn2c(Sc3cc4c(cc3Br)OCO4)nc3c(N)ncnc32)CC1` (stereo not drawn) [Example 518, 8-[(6-Bromo-1,3-benzodioxol-5-yl)thio]-9-(2-{1-[(2-methylcyclopropyl)carbonyl]piperidin-4-yl}ethyl)-9 H-purin-6-amine] displayed a concentration for half-maximal inhibition (IC50) of 140 nM. Compared with the last molecule, the IC50 is about 4.3-fold lower.

The molecule `CC1(C)C(C(=O)N2CCC(CCn3c(Sc4cc5c(cc4Br)OCO5)nc4c(N)ncnc43)CC2)C1(C)C` [Example 520, 8-[(6-Bromo-1,3-benzodioxol-5-yl)thio]-9-(2-{1-[(2,2,3,3-tetramethylcyclopropyl)carbonyl]piperidin-4-yl}ethyl)-9 H-purin-6-amine] returned an IC50 above 2000 nM.

The molecule `Nc1ncnc2c1nc(Sc1cc3c(cc1Br)OCO3)n2CCC1CCN(C(=O)[C@H]2C[C@@H]2F)CC1` [Example 522, 8-[(6-Bromo-1,3-benzodioxol-5-yl)thio]-9-[2-(1-{[(2S)-2-fluorocyclopropyl]carbonyl}piperidin-4-yl)ethyl]-9 H-purin-6-amine] registered an IC50 of 53 nM.

For `Nc1ncnc2c1nc(Sc1cc3c(cc1Br)OCO3)n2CCC1CCN(C(=O)C2CC2(F)F)CC1` (stereo not drawn) [Example 524, 8-[(6-Bromo-1,3-benzodioxol-5-yl)thio]-9-(2-{1-[(2,2-difluorocyclopropyl)carbonyl]piperidin-4-yl}ethyl)-9 H-purin-6-amine], the IC50 was determined as 100 nM.

Consider `Nc1ncnc2c1nc(Sc1cc3c(cc1Br)OCO3)n2CCC1CCN(C(=O)C2(C(F)(F)F)CC2)CC1` [Example 526, 8-[(6-Bromo-1,3-benzodioxol-5-yl)thio]-9-[2-(1-{[1-(trifluoromethyl)cyclopropyl]carbonyl}piperidin-4-yl)ethyl]-9 H-purin-6-amine], for which the IC50 was 300 nM.

With `CC(=O)N1CCC(CCn2c(Sc3ccc4c(c3)CCO4)nc3c(N)ncnc32)CC1` [Example 528, 9-[2-(1-Acetylpiperidin-4-yl)ethyl]-8-(2,3-dihydro-1-benzofuran-5-ylthio)-9 H-purin-6-amine], the 50% inhibitory concentration (IC50) is above 5000 nM.

Take `CC(=O)N1CCC(CCn2c(Sc3cc(Br)c4c(c3)CCO4)nc3c(N)ncnc32)CC1` [Example 530, 9-[2-(1-Acetylpiperidin-4-yl)ethyl]-8-[(7-bromo-2,3-dihydro-1-benzofuran-5-yl)thio]-9 H-purin-6-amine]: the IC50 came out at 2500 nM.

Turning to `Cc1cc(=O)oc2cc(Sc3nc4c(N)ncnc4n3CCC3CCN(C=O)CC3)ccc12` [Example 532, 4-(2-{6-Amino-8-[(4-methyl-2-oxo-2 H-chromen-7-yl)thio]-9 H-purin-9-yl}ethyl)piperidine-1-carbaldehyde], the concentration for half-maximal inhibition (IC50) is 5000 nM.

Values taken from patent US7595401B2, “Therapeutic compounds and their use in cancer” (Myriad Pharmaceuticals, Inc., priority 2006, dated 2009).
